Earlier results as cited in patent publication US20250143325A1, “PLANT-BASED INSECT REPELLENT AND USES THEREOF” (PIC Corporation, priority 2023, published 2025).

What was measured:
[1] = system: storage food mite, Tyrophagus putrescentiae; details: impregnated fabric disc bioassay against Tyrophagus putrescentiae
[2] = system: Periplaneta americana (the American Cockroach) and Blaberus discoidalis (discoids)

Row | SMILES | 50% lethal dose value [1] | concentration abolishing spontaneous foregut contractions (together with response to electrical stimulation) ([2]; foregut) | threshold for increased spontaneous firing (abdominal nerve cord) ([2]; lower doses, impulses recorded extracellularly)
1 | O=C(OCc1ccccc1)c1ccccc1 [benzyl benzoate] | 1.27 g/mL | – | –
2 | CC(C)=CCC/C(C)=C/CO [geraniol] | 1.95 g/mL | 2 mM | 250 µM
